# Source: PMC10707797, “Ureidobenzenesulfonamides as Selective Carbonic Anhydrase I, IX, and XII Inhibitors” (Molecules, 2023)
# pKi: −log10 of the molar value.
# How the values were obtained:
# hCA I = hCA I (Homo sapiens, UniProt P00915); assay: biochemical
# hCA II = hCA II (Homo sapiens, UniProt P00918); assay: biochemical
# hCA IX [1] = target: T1, hCA IX (Homo sapiens, UniProt Q16790); assay: biochemical
# hCA XII [2] = target: T2, hCA XII (Homo sapiens, UniProt O43570); assay: biochemical
# T2 sequence (O43570 25-354): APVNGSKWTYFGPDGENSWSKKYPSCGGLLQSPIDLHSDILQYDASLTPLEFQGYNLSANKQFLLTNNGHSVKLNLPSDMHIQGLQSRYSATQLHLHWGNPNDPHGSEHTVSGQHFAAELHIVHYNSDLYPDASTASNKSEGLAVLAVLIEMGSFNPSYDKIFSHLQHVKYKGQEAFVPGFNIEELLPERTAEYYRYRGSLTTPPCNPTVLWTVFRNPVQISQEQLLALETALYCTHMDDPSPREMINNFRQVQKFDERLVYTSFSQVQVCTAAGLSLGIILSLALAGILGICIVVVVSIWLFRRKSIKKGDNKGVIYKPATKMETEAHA
# hCA IX [3] = target: T1, hCA IX; assay: stop-flow CA inhibition assay, hCA IX; conditions: for S(I/IX) selectivity: ratio Ki hCA I / Ki hCA IX; for S(II/IX) selectivity: ratio Ki hCA II / Ki hCA IX
# hCA XII [4] = target: T2, hCA XII; assay: stop-flow CA inhibition assay, hCA XII; conditions: for S(I/XII) selectivity: ratio Ki hCA I / Ki hCA XII; for S(II/XII) selectivity: ratio Ki hCA II / Ki hCA XII
# Chain of hCA I (P00915 whole entry): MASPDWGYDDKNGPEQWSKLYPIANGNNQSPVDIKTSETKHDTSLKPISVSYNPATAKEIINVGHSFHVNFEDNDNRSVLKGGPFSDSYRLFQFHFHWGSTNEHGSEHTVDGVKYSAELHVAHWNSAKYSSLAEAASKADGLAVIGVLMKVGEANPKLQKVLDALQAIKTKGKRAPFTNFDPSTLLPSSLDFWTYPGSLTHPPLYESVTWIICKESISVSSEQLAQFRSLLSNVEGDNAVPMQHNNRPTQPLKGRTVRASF
smiles,measurement,setting,value
"NS(=O)(=O)c1ccc(NC(=O)NC(=O)c2ccccc2)cc1 [Compound 12, N-[(4-Sulfamoylphenyl)carbamoyl]benzamide]",melting point,,262 to 264 °C
same,pKi,hCA I,6.02
same,pKi,hCA II,6.68
same,pKi,hCA IX [1],6.68
same,pKi,hCA XII [2],7.19
same,S(I/IX) selectivity,hCA IX [3],4.57
same,S(II/IX) selectivity,hCA IX [3],1.01
same,S(I/XII) selectivity,hCA XII [4],14.84
same,S(II/XII) selectivity,hCA XII [4],3.27
"CCOC(=O)c1ccc(NC(=O)Nc2ccc(S(N)(=O)=O)cc2)cc1 [Compound 13, Ethyl 4-[3-(4-sulfamoylphenyl)ureido]benzoate]",melting point,,261 to 263 °C
"CCCCNC(=O)Nc1ccc(S(N)(=O)=O)cc1 [Compound 10, 4-(3-Butylureido)benzenesulfonamide]",melting point,,194 to 196 °C
"NS(=O)(=O)c1ccc(NC(=O)Nc2ccc(Cc3ccccc3)cc2)cc1 [Compound 2, 4-[3-(4-Benzylphenyl)ureido]benzenesulfonamide]",melting point,,230 to 232 °C
COc1ccc(NC(=O)Nc2ccc(S(N)(=O)=O)cc2)cc1 [Compound 5],melting point,,227 to 229 °C
"NS(=O)(=O)c1ccc(NC(=O)Nc2ccc(C(=O)O)cc2)cc1 [Compound 14, 4-[3-(4-Sulfamoylphenyl)ureido]benzoic acid]",melting point,,310 to 313 °C
"NS(=O)(=O)c1ccc(NC(=O)Nc2cc(Cl)ccc2Oc2ccccc2)cc1 [Compound 15, 4-[3-(5-Chloro-2-phenoxyphenyl)ureido]benzenesulfonamide]",melting point,,209 °C
"CCCCCCNC(=O)Nc1ccc(S(N)(=O)=O)cc1 [Compound 11, 4-(3-Hexylureido)benzenesulfonamide]",melting point,,202 to 203 °C
"NS(=O)(=O)c1ccc(NC(=O)Nc2cccc(F)c2)cc1 [Compound 7, 4-[3-(3-Fluorophenyl)ureido]benzenesulfonamide]",melting point,,240 to 241 °C
"CCNC(=O)Nc1ccc(S(N)(=O)=O)cc1 [Compound 8, 4-(3-Ethylureido)benzenesulfonamide]",melting point,,229 to 231 °C
"NS(=O)(=O)c1ccc(NC(=O)Nc2cccc3ccccc23)cc1 [Compound 1, 4-[3-(Naphthalen-1-yl)ureido]benzenesulfonamide]",pKi,hCA I,6.61
same,pKi,hCA II,7.47
same,pKi,hCA IX [1],7.37
same,pKi,hCA XII [2],7.81
same,S(I/IX) selectivity,hCA IX [3],5.66
same,S(II/IX) selectivity,hCA IX [3],0.78
same,S(I/XII) selectivity,hCA XII [4],15.66
same,S(II/XII) selectivity,hCA XII [4],2.16
NS(=O)(=O)c1ccc(NC(=O)Nc2ccccc2Cc2ccccc2)cc1 [Compound 3],melting point,,219 to 221 °C
COc1ccc(-c2ccccc2)cc1NC(=O)Nc1ccc(S(N)(=O)=O)cc1 [Compound 4],melting point,,271 to 272 °C
same,pKi,hCA I,5.18
same,pKi,hCA II,5.30
"COc1cccc(NC(=O)Nc2ccc(S(N)(=O)=O)cc2)c1 [Compound 6, 4-[3-(3-Methoxyphenyl)ureido]benzenesulfonamide]",pKi,hCA IX [1],6.68
same,pKi,hCA XII [2],7.04
"CC(C)NC(=O)Nc1ccc(S(N)(=O)=O)cc1 [Compound 9, 4-(3-Isopropylureido)benzenesulfonamide]",melting point,,221 to 223 °C
same,pKi,hCA I,6.35
same,pKi,hCA IX [1],6.74
same,pKi,hCA XII [2],7.34
